These antisense oligonucleotides have a phosphorothioate backbone; sugars and methylation of C are not fully specified.
Experiments:
Conditions in all cases: ASO
GNA13 = target: GNA13
E2F1 = target: E2F1
AKT3 = target: AKT3
Also: test concentration or dose not given here.

## CGGACCGCGACGGCAGGA
GNA13
  remaining target (mRNA or protein) (fraction of control): 0.58

## CGGCGGGCGGCCGAGCGCGG
E2F1
  remaining target (mRNA or protein) (fraction of control): 0.83

## CGGTCATAGGCATTCTGT
GNA13
  remaining target (mRNA or protein) (fraction of control): 0.66

## CGTAGAATTAAGATTGTT
GNA13
  remaining target (mRNA or protein) (fraction of control): ≥ 1

## CGTTTGTTCCGGAAACAT
GNA13
  remaining target (mRNA or protein) (fraction of control): 0.76

## CTCAGAAGTGACCTCCTGGG
E2F1
  remaining target (mRNA or protein) (fraction of control): 0.73

## CTCCATGTTGTTGGTTTG
GNA13
  remaining target (mRNA or protein) (fraction of control): 0.46

## CTCCCTCACTTTCCCAATAA
E2F1
  remaining target (mRNA or protein) (fraction of control): 0.71

## CTGCAATGCTACGAAGGTCC
E2F1
  remaining target (mRNA or protein) (fraction of control): 0.26

## CTTCATTCCCCGGTACATGC
E2F1
  remaining target (mRNA or protein) (fraction of control): 0.72

## CTTGCGTTGCTGCTCGGC
GNA13
  remaining target (mRNA or protein) (fraction of control): 0.36

## CTTTTCCCGAGACAGGCA
GNA13
  remaining target (mRNA or protein) (fraction of control): 0.08

## GAAAACCCTTGTTTCCAC
GNA13
  remaining target (mRNA or protein) (fraction of control): 0.33

## GAAATAGTCTTTGATGCT
GNA13
  remaining target (mRNA or protein) (fraction of control): 0.61

## GAACTCCTCAGGGAGGAGGC
E2F1
  remaining target (mRNA or protein) (fraction of control): 0.59

## GACAGGCATTTGTCGATC
GNA13
  remaining target (mRNA or protein) (fraction of control): ≥ 1

## GACCACAGGGTCTGGGCTGG
E2F1
  remaining target (mRNA or protein) (fraction of control): 0.62

## GACCGCGACGGCAGGAAG
GNA13
  remaining target (mRNA or protein) (fraction of control): ≥ 1

## GAGGAGGCCGGAGAAGTCCT
E2F1
  remaining target (mRNA or protein) (fraction of control): 0.75

## GAGGCCTCGATAAATAAATA
E2F1
  remaining target (mRNA or protein) (fraction of control): 0.94

## GAGTCGGCCGCCACCAGCGG
E2F1
  remaining target (mRNA or protein) (fraction of control): 0.27

## GATTCTGGGAGCAGGCACTG
E2F1
  remaining target (mRNA or protein) (fraction of control): 0.79

## GCAGGCGCTTCAGACACTGC
E2F1
  remaining target (mRNA or protein) (fraction of control): 0.3

## GCCACTGGATGTGGTTCTTG
E2F1
  remaining target (mRNA or protein) (fraction of control): 0.94

## GCCAGGCGCTGGCTGTCAGT
E2F1
  remaining target (mRNA or protein) (fraction of control): 0.69

## GCCCACTGCTCTCGGCCAGG
E2F1
  remaining target (mRNA or protein) (fraction of control): 0.4

## GCCGACGCCCACTGTGGTGT
E2F1
  remaining target (mRNA or protein) (fraction of control): 0.45

## GCCTTGTGGGACCCCACGAG
E2F1
  remaining target (mRNA or protein) (fraction of control): 0.83

## GCGGCCCGGGTGACAGGCGG
E2F1
  remaining target (mRNA or protein) (fraction of control): 0.32

## GCTCCAGGCTGAGTAGAGAC
E2F1
  remaining target (mRNA or protein) (fraction of control): 0.73

## GGACTCATGCACACACATGT
E2F1
  remaining target (mRNA or protein) (fraction of control): 0.16

## GGACTTCTTGGCAATGAGCT
E2F1
  remaining target (mRNA or protein) (fraction of control): 0.65

## GGAGGACGGCCAGGGACAGG
E2F1
  remaining target (mRNA or protein) (fraction of control): 0.7

## GGCCATGACGCTCACGGCCC
E2F1
  remaining target (mRNA or protein) (fraction of control): 0.76

## GGCCGAAAGTGCAGTTAGAG
E2F1
  remaining target (mRNA or protein) (fraction of control): ≥ 1

## GGCCGCGGCGCACTGGGTGT
E2F1
  remaining target (mRNA or protein) (fraction of control): 0.79

## GGCTGCCCATCCGGGACAAC
E2F1
  remaining target (mRNA or protein) (fraction of control): 0.53

## GGCTTGCTCAGCCTCCTAGC
E2F1
  remaining target (mRNA or protein) (fraction of control): 0.17

## GGGAGATGATGGTGGTGGTG
E2F1
  remaining target (mRNA or protein) (fraction of control): ≥ 1

## GGGCCGGTGGGAGCCGGCGG
E2F1
  remaining target (mRNA or protein) (fraction of control): 0.37

## GGTATAAATTAAATGTTTCC
E2F1
  remaining target (mRNA or protein) (fraction of control): 0.62

## GGTCCAGCCTCCGCTTCACC
E2F1
  remaining target (mRNA or protein) (fraction of control): 0.36

## GGTCCCTCCAAGCCCTGTCA
E2F1
  remaining target (mRNA or protein) (fraction of control): 0.2

## GGTCCTGGGTCAACCCCTCA
E2F1
  remaining target (mRNA or protein) (fraction of control): 0.62

## GTGACACTATGGTGGCAGAG
E2F1
  remaining target (mRNA or protein) (fraction of control): 0.75

## GTGGTCAGATTCAGTGAGGT
E2F1
  remaining target (mRNA or protein) (fraction of control): 0.43

## GTGTGGGTGTAGGCTGCATG
E2F1
  remaining target (mRNA or protein) (fraction of control): 0.76

## TACTCTGGAAACCCTGGTCC
E2F1
  remaining target (mRNA or protein) (fraction of control): 0.75

## TAGCCAGACCCCAGAGCTAG
E2F1
  remaining target (mRNA or protein) (fraction of control): 0.46

## TATTAAAACCAAAGCAGGAG
E2F1
  remaining target (mRNA or protein) (fraction of control): 0.69

## TCAGCCGAGTGGCTCAGCAG
E2F1
  remaining target (mRNA or protein) (fraction of control): 0.91

## TCCTGCAGCTGTCGGAGGTC
E2F1
  remaining target (mRNA or protein) (fraction of control): 0.8

## TCTGCGAGGAGTCGAGCAGC
E2F1
  remaining target (mRNA or protein) (fraction of control): 0.79

## TGAAAGTTCTCCGAAGAGTC
E2F1
  remaining target (mRNA or protein) (fraction of control): 0.56

## TGCACACACAGAGGTGTATG
E2F1
  remaining target (mRNA or protein) (fraction of control): 0.27

## TGGAGAGGGCCCACCCCACC
E2F1
  remaining target (mRNA or protein) (fraction of control): 0.62

## TGGCAGAGTCAGTGGCCCTG
E2F1
  remaining target (mRNA or protein) (fraction of control): 0.94

## TGTTAGGAAGCAAATCAAAG
E2F1
  remaining target (mRNA or protein) (fraction of control): 0.74

## TTCCCTTTCCTCTGGAGT
AKT3
  remaining target (mRNA or protein) (fraction of control): 0.65

## TTGCTGATTCCCCAGGCTCA
E2F1
  remaining target (mRNA or protein) (fraction of control): 0.36

## TTGGACTACAATTCATTC
AKT3
  remaining target (mRNA or protein) (fraction of control): 0.72

## TTGGCTTTGGTCGTTCTG
AKT3
  remaining target (mRNA or protein) (fraction of control): ≥ 1

## TTGGTCGTTCTGTTTTCA
AKT3
  remaining target (mRNA or protein) (fraction of control): ≥ 1

## TTTAACGTCATCAAAATATT
E2F1
  remaining target (mRNA or protein) (fraction of control): 0.93

## TTTCCTCTGGAGTATCTA
AKT3
  remaining target (mRNA or protein) (fraction of control): ≥ 1

## TTTGATCACCATAACCATCT
E2F1
  remaining target (mRNA or protein) (fraction of control): 0.08

## TTTGCATCTGAAGAGAGT
AKT3
  remaining target (mRNA or protein) (fraction of control): 0.77

## TTTGCCACTGAAAAGTTG
AKT3
  remaining target (mRNA or protein) (fraction of control): ≥ 1

## TTTGTGAAGTTGGACTAC
AKT3
  remaining target (mRNA or protein) (fraction of control): ≥ 1

Reference: the OligoGym collection
